Earlier results, collected in publication PMC8739290, “A phase 1b study of erlotinib and momelotinib for the treatment of EGFR-mutated, tyrosine kinase inhibitor-naive metastatic non-small cell lung cancer” (Cancer Chemotherapy and Pharmacology, 2021).

How the values were obtained:
[1] = system: PC-9 xenograft tumors and EGFR-mutant transgenic mice; design: method as in PMID 24238495; settings: cited from earlier work
EGFR-mutated NSCLC lines = system: EGFR-mutated NSCLC lines; design: method as in PMID 18060032; settings: multiple EGFR-mutated NSCLC lines; cited from earlier work
HCC827 xenograft model = system: HCC827 xenograft model; design: method as in doi:10.1158/1538-7445.AM2018-2938; settings: cited from earlier work

Cc1cc(Nc2nc(N[C@@H](C)c3ncc(F)cn3)ncc2Cl)n[nH]1 [AZD1480]
single-agent activity ([1]; PC-9 xenograft tumors and EGFR-mutant transgenic mice): independent activity
number of lung tumors [1]: decreased number of lung tumors
overall survival [1]: improved overall survival

CC(C)(C)c1nc2c3ccc(F)cc3c3c(=O)[nH]ccc3c2[nH]1 [P6]
effect on cell cycle (EGFR-mutated NSCLC lines): cell-cycle arrest at the G2/M phase
effect on colony formation (EGFR-mutated NSCLC lines): suppressed colony formation
effect on phosphorylated-STAT3 (pSTAT3) (EGFR-mutated NSCLC lines): uniformly abrogated pSTAT3

N#CCC1(n2cc(-c3ncnc4[nH]ccc34)cn2)CN(C2CCN(C(=O)c3ccnc(C(F)(F)F)c3F)CC2)C1 [itacitinib]
single-agent activity (HCC827 xenograft model; HCC827 xenograft model): independent activity
tumor growth inhibition in combination (HCC827 xenograft model; itacitinib in combination with erlotinib or osimertinib): synergistic tumor growth inhibition
